The structures appear in SMILES notation.

The text below walks through data of patent US10227323B2, “Glucosylceramide synthase inhibitors for the treatment of diseases” (BIOMARIN PHARMACEUTICAL INC., priority 2013, dated 2019).

The target of this assay is T1, GCS (Canis lupus familiaris, UniProt A0A8I3MXG6).
T1 sequence (A0A8I3MXG6 1-394): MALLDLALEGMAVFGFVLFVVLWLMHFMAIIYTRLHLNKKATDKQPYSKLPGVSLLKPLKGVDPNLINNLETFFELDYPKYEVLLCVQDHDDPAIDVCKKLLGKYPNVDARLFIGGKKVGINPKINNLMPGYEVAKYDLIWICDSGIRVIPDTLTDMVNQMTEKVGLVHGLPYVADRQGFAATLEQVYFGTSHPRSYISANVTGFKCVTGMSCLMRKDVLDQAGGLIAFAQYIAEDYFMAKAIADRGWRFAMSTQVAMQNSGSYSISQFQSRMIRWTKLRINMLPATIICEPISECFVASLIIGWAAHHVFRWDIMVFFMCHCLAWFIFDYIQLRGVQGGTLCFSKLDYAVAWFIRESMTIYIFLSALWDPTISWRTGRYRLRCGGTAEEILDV
In words: Assay 1: GCS Enzymatic Assay (MDCK cell lysate, C6-NBD-Ceramide, LC/MS). As to conditions: Table 2; for % inhibition generated from Assay 1: data marked by *; for IC50: data without asterisk, read-out: IC50 (nM) generated from Assay 1. It counts as biochemical, canine. The essentials:
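LC/MS/MS measurement of glucosylceramide and NBD-ceramide after a 1 h, 37 °C reaction with 100 μM UDP-glucose and 10 μM C6-NBD-ceramide gave IC50s or percent inhibition.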

Take `Cn1ncc2ccc(C(=O)C(=O)N[C@H](CN3CCCC3)[C@H](O)c3cc(F)c4c(c3)OCCO4)cc21` [Compound 245, N-((1R,2R)-1-(8-fluoro-2,3-dihydrobenzo[b][1,4]dioxin-6-yl)-1-hydroxy-3-(pyrrolidin-1-yl)propan-2-yl)-2-(1-methyl-1H-indazol-6-yl)-2-oxoacetamide]: the “% inhibition generated from Assay 1” value is “A* (the compound had a % inhibition of a percent inhibition of greater than or equal to about 50%)”.
Usually IC50 stands for the concentration at which inhibition is half-maximal. As for `Cn1ncc2ccc(-c3ccc(C(=O)C(=O)N[C@H](CN4CCCC4)[C@H](O)c4cc(F)c5c(c4)OCCO5)cc3)cc21` [Compound 246, N-((1R,2R)-1-(8-fluoro-2,3-dihydrobenzo[b][1,4]dioxin-6-yl)-1-hydroxy-3-(pyrrolidin-1-yl)propan-2-yl)-2-(4-(1-methyl-1H-indazol-6-yl)phenyl)-2-oxoacetamide], the IC50 is less than 50 nM.
Turning to `O=C(N[C@H](CN1CCCC1)[C@H](O)c1ccc(OC2CC2)c(Cl)c1)C(F)(F)c1ccc(-c2ccc(F)cc2)nc1` [Compound 247, N-((1R,2R)-1-(3-chloro-4-cyclopropoxyphenyl)-1-hydroxy-3-(pyrrolidin-1-yl)propan-2-yl)-2,2-difluoro-2-(6-(4-fluorophenyl)pyridin-3-yl)acetamide], the “% inhibition generated from Assay 1” value is listed as “A* (the compound had a % inhibition of a percent inhibition of greater than or equal to about 50%)”.
Take `O=C(N[C@H](CN1CCC1)[C@H](O)c1cc(F)c2c(c1)OCCO2)C(=O)c1cccc(Oc2ccc(F)cc2)c1` [Compound 248, N-((1R,2R)-3-(azetidin-1-yl)-1-(8-fluoro-2,3-dihydrobenzo[b][1,4]dioxin-6-yl)-1-hydroxypropan-2-yl)-2-(3-(4-fluorophenoxy)phenyl)-2-oxoacetamide]: the IC50 is less than 50 nM.
Regarding `O=C(N[C@H](CN1CCCC1)[C@H](O)c1ccc(OC2CC2)c(Cl)c1)C(=O)c1cccc(Oc2ccc(F)cc2)c1` [Compound 249, N-((1R,2R)-1-(3-chloro-4-cyclopropoxyphenyl)-1-hydroxy-3-(pyrrolidin-1-yl)propan-2-yl)-2-(3-(4-fluorophenoxy)phenyl)-2-oxoacetamide], the IC50 was less than 50 nM.
As to `O=C(N[C@H](CN1CCCC1)[C@H](O)c1cc(F)c2c(c1)OCCO2)C(=O)c1cccc(-c2ccc(F)cc2)c1` [Compound 250, N-((1R,2R)-1-(8-fluoro-2,3-dihydrobenzo[b][1,4]dioxin-6-yl)-1-hydroxy-3-(pyrrolidin-1-yl)propan-2-yl)-2-(4′-fluoro-[1,1′-biphenyl]-3-yl)-2-oxoacetamide], the IC50 was less than 50 nM.
The same measure, in the same setting: in the case of `O=C(N[C@H](CN1CCCC1)[C@H](O)c1ccc(OC2CC2)c(Cl)c1)C(=O)c1cccc(-c2ccc(F)cc2)c1` [Compound 251, N-((1R,2R)-1-(3-chloro-4-cyclopropoxyphenyl)-1-hydroxy-3-(pyrrolidin-1-yl)propan-2-yl)-2-(4′-fluoro-[1,1′-biphenyl]-3-yl)-2-oxoacetamide] it was less than 50 nM.
`O=C(N[C@H](CN1CCCC1)[C@H](O)c1ccc2c(c1)OCCO2)C(=O)N1CCN(c2ccc(F)cc2)CC1` [Compound 252, N-((1R,2R)-1-(2,3-dihydrobenzo[b][1,4]dioxin-6-yl)-1-hydroxy-3-(pyrrolidin-1-yl)propan-2-yl)-2-(4-(4-fluorophenyl)piperazin-1-yl)-2-oxoacetamide]: the “% inhibition generated from Assay 1” value is listed as “A* (the compound had a % inhibition of a percent inhibition of greater than or equal to about 50%)”.
With `O=C(N[C@H](CN1CCC1)[C@H](O)c1ccc(OC2CC2)c(Cl)c1)C(=O)c1ccc(-c2ccc(F)cc2)cc1` [Compound 253, N-((1R,2R)-3-(azetidin-1-yl)-1-(3-chloro-4-cyclopropoxyphenyl)-1-hydroxypropan-2-yl)-2-(4′-fluoro-[1,1′-biphenyl]-4-yl)-2-oxoacetamide], the IC50 was less than 50 nM.
Still for that read-out and setting: in the case of `O=C(N[C@H](CN1CCCC1)[C@H](O)c1cc(F)c2c(c1)OCCO2)C(=O)N1CCN(c2ccc(F)cc2)CC1` [Compound 254, N-((1R,2R)-1-(8-fluoro-2,3-dihydrobenzo[b][1,4]dioxin-6-yl)-1-hydroxy-3-(pyrrolidin-1-yl)propan-2-yl)-2-(4-(4-fluorophenyl)piperazin-1-yl)-2-oxoacetamide] it was less than 50 nM.
With `CC(C)(C)c1ccc(-c2ccc(C(=O)C(=O)N[C@H](CN3CCCC3)[C@H](O)c3ccc(OC4CC4)c(Cl)c3)cc2)cc1` [Compound 255, 2-(4′-(tert-butyl)-[1,1′-biphenyl]-4-yl)-N-((1R,2R)-1-(3-chloro-4-cyclopropoxyphenyl)-1-hydroxy-3-(pyrrolidin-1-yl)propan-2-yl)-2-oxoacetamide], the half-inhibitory concentration (IC50) was less than 50 nM.
For `CC(C)n1ncc2ccc(-c3ccc(C(=O)C(=O)N[C@H](CN4CCCC4)[C@H](O)c4ccc(OC5CC5)c(Cl)c4)cc3)cc21` [Compound 256, N-((1R,2R)-1-(3-chloro-4-cyclopropoxyphenyl)-1-hydroxy-3-(pyrrolidin-1-yl)propan-2-yl)-2-(4-(1-isopropyl-1H-indazol-6-yl)phenyl)-2-oxoacetamide], the IC50 is less than 50 nM.
Regarding `CC(C)n1cc2ccc(-c3ccc(C(=O)C(=O)N[C@H](CN4CCCC4)[C@H](O)c4ccc(OC5CC5)c(Cl)c4)cc3)cc2n1` [Compound 257, N-((1R,2R)-1-(3-chloro-4-cyclopropoxyphenyl)-1-hydroxy-3-(pyrrolidin-1-yl)propan-2-yl)-2-(4-(2-isopropyl-2H-indazol-6-yl)phenyl)-2-oxoacetamide], the IC50 is less than 50 nM.
Same read-out and setting: to `O=C(N[C@H](CN1CCCC1)[C@H](O)c1cc(F)c2c(c1)OCCO2)C(=O)c1ccc(-c2ccc(Cl)s2)cc1` [Compound 360, 2-(4-(5-chlorothiophen-2-yl)phenyl)-N-((1R,2R)-1-(8-fluoro-2,3-dihydrobenzo[b][1,4]dioxin-6-yl)-1-hydroxy-3-(pyrrolidin-1-yl)propan-2-yl)-2-oxoacetamide] belongs less than 50 nM.
On to `COc1c(F)cc([C@@H](O)[C@@H](CN2CCCC2)NC(=O)C(=O)c2ccc(-c3ccc(F)cc3)cc2)cc1OC(C)C` [Compound 361, N-((1R,2R)-1-(3-fluoro-5-isopropoxy-4-methoxyphenyl)-1-hydroxy-3-(pyrrolidin-1-yl)propan-2-yl)-2-(4′-fluoro-[1,1′-biphenyl]-4-yl)-2-oxoacetamide], for which the IC50 was in the range of 50 to 5000 nM.
On the same count and under the same terms, in the case of `CC1(C)COc2c(F)cc([C@@H](O)[C@@H](CN3CCCC3)NC(=O)C(=O)c3ccc(-c4ccc(F)cc4)cc3)cc2O1` [Compound 362, N-((1R,2R)-1-(8-fluoro-3,3-dimethyl-2,3-dihydrobenzo[b][1,4]dioxin-6-yl)-1-hydroxy-3-(pyrrolidin-1-yl)propan-2-yl)-2-(4′-fluoro-[1,1′-biphenyl]-4-yl)-2-oxoacetamide] it was less than 50 nM; in that of `O=C(N[C@H](CN1CCCC1)[C@H](O)c1ccc(OC2CC2)c(Cl)c1)C(=O)c1ccc(-c2ccc(Cl)s2)cc1` [Compound 363, N-((1R,2R)-1-(3-chloro-4-cyclopropoxyphenyl)-1-hydroxy-3-(pyrrolidin-1-yl)propan-2-yl)-2-(4-(5-chlorothiophen-2-yl)phenyl)-2-oxoacetamide], less than 50 nM; in that of `COc1c(F)cc([C@@H](O)[C@@H](CN2CCCC2)NC(=O)C(=O)c2cc3ccc(Cl)cc3s2)cc1OC(C)C` [Compound 364, 2-(6-chlorobenzo[b]thiophen-2-yl)-N-((1R,2R)-1-(3-fluoro-5-isopropoxy-4-methoxyphenyl)-1-hydroxy-3-(pyrrolidin-1-yl)propan-2-yl)-2-oxoacetamide], 50 to 5000 nM.
